In patent US20130237535A1, “FATTY ACID SYNTHASE INHIBITORS” (priority 2010, published 2013):
pIC50: −log10 of the molar value.

Biological target: FAS (Homo sapiens, UniProt P49327)
Test: FAS assay (Assay #1 residual NADPH detection or Assay #2 CoA detection with thio-reactive coumarin dye)
Assay type: biochemical
Conditions: average IC50 values, each compound tested two or more times; FAS Assay #1 or #2
Experimental: FAS activity was measured through one of the two following assays.
Inhibition of FAS activity can be measured based on the detection of residual NADPH substrate after the FAS assay is quenched. This assay is run as a 10 μL, endpoint assay in 384-well format, where the reaction contains 20 μM malonyl-CoA, 2 μM acetyl-CoA, 30 μM NADPH and 40 nM FAS in 50 mM sodium phosphate, pH 7.0. The assay is run by sequentially dispensing 5 μl of a malonyl-CoA solution, then enzyme solution (containing the acetyl-CoA, and NADPH) into a black, low volume assay plate (Greiner 784076) pre-dispensed with 100 nL compound solutions in DMSO. The reaction is incubated at ambient temperature for 60 minutes, then quenched with 5 μL, of a developing solution composed of 90 μM resazurin, 0.3 IU/ml diaphorase in 50 mM sodium phosphate, pH 7.0. The developed reaction is read on a Molecular Devices Analyst or Acquest (or equivalent) plate reader using a 530 nm excitation wavelength filter, a 580 nm emission filter, and 561 nm dichroic filter. The test compounds are prepared in neat DMSO at a concentration of 10 mM. For inhibition curves, compounds are diluted using a three fold serial dilution and tested at 11 concentrations (e.g. 25 μM-0.42 nM). Curves are analysed using ActivityBase and XLfit, and results are expressed as pIC50 values.
Inhibition of FAS can also be quantified based on the detection of the CoA products with a thio-reactive coumarin dye. This assay is run as a 10 μL endpoint assay in 384-well format, where the reaction contains 20 μM malonyl-CoA, 20 μM acetyl-CoA, 40 μM NADPH and 2 nM FAS in 50 mM sodium phosphate, pH 7.0, and 0.04% Tween-20. The assay is run by adding 5 μL enzyme solution to a black, low volume assay plate (Greiner 784076) pre-dispensed with 100 nl compound solutions in DMSO. After 30 minutes, 5 μL substrate is added, and the reaction incubated at ambient temperature for an additional 60 minutes. The reaction is then quenched with 10 μL of 6M guanidine-HCl containing 50 μM CPM (7-diethylamino-3-(4′-maleimidylphenyl)-4-methylcoumarin (CPM; thio-reactive dye), and incubated for 30 minutes. The plate is read on an Envision (PerkinElmer) or equivalent plate reader using a 380 nm excitation wavelength filter, and a 486 nm emission filter. Data fitting and compound preparations are done as described above.

FAS, sequence (P49327 whole entry): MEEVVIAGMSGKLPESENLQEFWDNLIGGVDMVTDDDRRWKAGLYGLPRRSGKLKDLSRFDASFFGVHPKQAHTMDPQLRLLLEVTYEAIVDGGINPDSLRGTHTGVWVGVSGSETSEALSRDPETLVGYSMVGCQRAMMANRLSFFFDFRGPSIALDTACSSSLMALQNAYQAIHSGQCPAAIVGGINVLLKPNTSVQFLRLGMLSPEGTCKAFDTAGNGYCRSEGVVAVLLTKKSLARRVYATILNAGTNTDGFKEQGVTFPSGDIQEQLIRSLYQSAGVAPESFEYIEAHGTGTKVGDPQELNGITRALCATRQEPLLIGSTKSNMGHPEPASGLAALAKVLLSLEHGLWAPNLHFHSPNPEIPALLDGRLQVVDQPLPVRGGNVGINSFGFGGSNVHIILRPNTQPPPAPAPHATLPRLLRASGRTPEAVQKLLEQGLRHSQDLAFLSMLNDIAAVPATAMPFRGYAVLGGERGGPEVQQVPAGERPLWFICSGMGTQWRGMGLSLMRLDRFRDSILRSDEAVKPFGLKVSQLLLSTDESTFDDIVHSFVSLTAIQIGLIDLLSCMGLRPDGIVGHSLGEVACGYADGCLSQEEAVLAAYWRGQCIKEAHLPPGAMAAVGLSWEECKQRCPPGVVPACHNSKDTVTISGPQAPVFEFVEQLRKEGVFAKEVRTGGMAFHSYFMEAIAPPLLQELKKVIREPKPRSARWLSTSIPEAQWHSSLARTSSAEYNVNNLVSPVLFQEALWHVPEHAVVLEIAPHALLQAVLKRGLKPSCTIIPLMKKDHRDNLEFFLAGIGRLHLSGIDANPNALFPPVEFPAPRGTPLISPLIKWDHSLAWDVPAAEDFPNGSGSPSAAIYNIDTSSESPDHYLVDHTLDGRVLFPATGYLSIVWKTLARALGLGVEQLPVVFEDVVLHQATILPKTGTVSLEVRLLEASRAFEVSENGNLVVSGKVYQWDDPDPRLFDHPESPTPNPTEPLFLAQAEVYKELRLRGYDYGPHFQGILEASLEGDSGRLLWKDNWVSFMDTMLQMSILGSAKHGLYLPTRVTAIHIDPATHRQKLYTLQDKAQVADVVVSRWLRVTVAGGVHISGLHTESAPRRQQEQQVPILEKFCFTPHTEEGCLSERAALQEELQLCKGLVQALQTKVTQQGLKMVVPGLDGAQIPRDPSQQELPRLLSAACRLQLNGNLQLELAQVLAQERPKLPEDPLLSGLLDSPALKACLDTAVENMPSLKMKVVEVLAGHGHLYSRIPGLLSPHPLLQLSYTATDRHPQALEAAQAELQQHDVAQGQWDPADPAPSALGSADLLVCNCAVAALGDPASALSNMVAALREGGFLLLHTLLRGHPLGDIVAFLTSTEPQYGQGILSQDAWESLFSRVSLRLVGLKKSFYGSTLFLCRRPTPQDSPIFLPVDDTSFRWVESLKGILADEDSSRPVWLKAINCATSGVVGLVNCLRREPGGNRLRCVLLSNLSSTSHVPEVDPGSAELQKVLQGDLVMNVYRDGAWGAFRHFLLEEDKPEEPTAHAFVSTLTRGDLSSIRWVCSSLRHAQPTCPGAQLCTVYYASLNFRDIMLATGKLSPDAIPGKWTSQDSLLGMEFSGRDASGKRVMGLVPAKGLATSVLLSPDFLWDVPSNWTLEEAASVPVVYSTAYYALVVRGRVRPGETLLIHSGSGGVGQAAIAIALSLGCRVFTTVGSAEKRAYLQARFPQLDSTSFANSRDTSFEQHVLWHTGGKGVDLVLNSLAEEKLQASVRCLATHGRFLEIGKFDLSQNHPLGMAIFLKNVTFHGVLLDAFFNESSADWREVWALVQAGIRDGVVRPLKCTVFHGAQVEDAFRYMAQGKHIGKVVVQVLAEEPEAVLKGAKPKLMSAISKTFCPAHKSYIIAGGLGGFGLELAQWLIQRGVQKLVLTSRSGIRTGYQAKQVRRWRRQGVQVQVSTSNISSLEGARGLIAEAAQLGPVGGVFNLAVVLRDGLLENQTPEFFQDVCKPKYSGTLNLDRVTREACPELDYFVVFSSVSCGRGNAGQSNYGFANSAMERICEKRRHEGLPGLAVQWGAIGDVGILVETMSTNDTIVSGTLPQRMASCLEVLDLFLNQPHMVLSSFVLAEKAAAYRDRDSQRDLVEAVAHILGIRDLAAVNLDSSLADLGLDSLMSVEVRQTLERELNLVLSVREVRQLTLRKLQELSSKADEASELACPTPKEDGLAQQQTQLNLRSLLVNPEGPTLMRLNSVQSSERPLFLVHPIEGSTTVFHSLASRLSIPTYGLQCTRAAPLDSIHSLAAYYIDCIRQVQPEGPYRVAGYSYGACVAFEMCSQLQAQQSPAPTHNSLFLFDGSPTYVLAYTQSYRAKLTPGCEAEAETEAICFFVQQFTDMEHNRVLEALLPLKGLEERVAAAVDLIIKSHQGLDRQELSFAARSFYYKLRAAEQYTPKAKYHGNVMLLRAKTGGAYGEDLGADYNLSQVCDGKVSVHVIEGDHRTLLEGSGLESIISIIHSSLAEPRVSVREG

Compound | pIC50
O=C1COC2(CCN(S(=O)(=O)c3ccc(-c4ccc5cc[nH]c5c4)cc3)CC2)CN1C1CC1 [Example 14, 4-cyclopropyl-9-{[4-(1H-indol-6-yl)phenyl]sulfonyl}-1-oxa-4,9-diazaspiro[5.5]undecan-3-one] | 7.40
O=C1COC2(CCN(S(=O)(=O)c3ccc(-c4ccccc4)cc3)CC2)CN1C1CC1 [Example 13, 9-(4-biphenylylsulfonyl)-4-cyclopropyl-1-oxa-4,9-diazaspiro[5.5]undecan-3-one] | 5.90
O=C1COC2(CCN(S(=O)(=O)c3ccc(-c4cc5ccccc5o4)cc3)CC2)CN1C1CC1 [Example 26, 9-{[4-(1-benzofuran-2-yl)phenyl]sulfonyl}-4-cyclopropyl-1-oxa-4,9-diazaspiro[5.5]undecan-3-one] | 6.70
CCN1CC2(CCN(S(=O)(=O)c3ccc(-c4ccc5occc5c4)cc3)CC2)OCC1=O [Example 3, 9-{[4-(1-benzofuran-5-yl)phenyl]sulfonyl}-4-ethyl-1-oxa-4,9-diazaspiro[5.5]undecan-3-one] | 6.60
O=C1COC2(CCN(S(=O)(=O)c3ccc(-c4ccc5cccnc5c4)cc3)CC2)CN1C1CC1 [Example 29, 4-cyclopropyl-9-{[4-(7-quinolinyl)phenyl]sulfonyl}-1-oxa-4,9-diazaspiro[5.5]undecan-3-one] | 8.00
O=C1COC2(CCN(S(=O)(=O)c3ccc(-c4ccc5cccnc5c4)cc3F)CC2)CN1C1CC1 [Example 59, 4-cyclopropyl-9-{[2-fluoro-4-(7-quinolinyl)phenyl]sulfonyl}-1-oxa-4,9-diazaspiro[5.5]undecan-3-one] | 7.89

The next lines start with the values.

pIC50 | Compound
7.20 | Cn1nc(NS(C)(=O)=O)c2cc(-c3ccc(S(=O)(=O)N4CCC5(CC4)CN(C4CC4)C(=O)CO5)cc3)ccc21 [Example 105, N-(5-{4-[(4-cyclopropyl-3-oxo-1-oxa-4,9-diazaspiro[5.5]undec-9-yl)sulfonyl]phenyl}-1-methyl-1H-indazol-3-yl)methanesulfonamide]
7.49 | O=C1COC2(CCN(S(=O)(=O)c3ccc(-c4ccc5scnc5c4)cc3F)CC2)CN1C1CC1 [Example 76, 9-{[4-(1,3-benzothiazol-5-yl)-2-fluorophenyl]sulfonyl}-4-cyclopropyl-1-oxa-4,9-diazaspiro[5.5]undecan-3-one]
8.22 | O=C1COC2(CCN(S(=O)(=O)c3ccc(-c4ccc5cnccc5c4)cc3)CC2)CN1C1CC1 [Example 86, 4-cyclopropyl-9-{[4-(6-isoquinolinyl)phenyl]sulfonyl}-1-oxa-4,9-diazaspiro[5.5]undecan-3-one]
7.49 | O=C1COC2(CCN(S(=O)(=O)c3ccc(-c4ccc5[nH]ccc5c4)cc3F)CC2)CN1C1CC1 [Example 70, 4-cyclopropyl-9-{[2-fluoro-4-(1H-indol-5-yl)phenyl]sulfonyl}-1-oxa-4,9-diazaspiro[5.5]undecan-3-one]
